{"source": "patent US8513280B2", "about": "“Use of epothilones in the treatment of neuronal connectivity defects such as schizophrenia and autism” (Institut National de la Sante et de la Recherche Medicale, priority 2004, dated 2013)", "type_in_all_cases": "in vivo, mouse", "key": {"[1]": {"test_system": "STOP deficient mice", "assay": "Spontaneous activity, video-recorded during 3 h, STOP KO mice", "procedure": "(§1) Spontaneous activity (male and female) was recorded and quantified during a three hours period of time, as in Andrieux et al., Genes Dev. 2002 Sep. 15; 16(18):2350-64. Five activities were considered: feeding, remaining still without sleeping, walking, grooming and sleeping. For each activity, the total time spent doing the activity and the number of distinct sequences of activity, were determined.\n(§2) In a first series of experiments, epothilone D was injected intra-peritoneally, once a week, at either 0.3 mg/kg/week or 3 mg/kg/week for at least 8 weeks. The drug was diluted at a final concentration of 0.3 mg/ml in water, from a 50 mg/ml stock solution in DMSO.\n(§3) In a second series of experiments, epothilone D was injected intra-peritoneally, in two injections a week, at a total dose of 4 mg/kg/week, for 8 weeks. The drug was diluted at a final concentration of 0.2 mg/ml in water, from a 50 mg/ml stock solution in DMSO.\n(§4) Among 61 STOP KO mice, 28 were treated with placebo injections, 33 with 3 mg/kg/week of epothilone D. Among 62 WT mice, 29 were treated with placebo injections, 33 with 3 mg/kg/week of epothilone D.\n(§5) In another series of experiments, among 19 STOP KO mice, 9 were treated with placebo injections, 10 with 4 mg/kg/week epothilone D. Among 20 WT mice, 10 were treated with placebo injections and 10 with 4 mg/kg/week epothilone D."}, "[2]": {"test_system": "WT mice", "assay": "Spontaneous activity, video-recorded during 3 h, WT mice", "procedure": "as §1, §2, §3, §4, §5"}, "[3]": {"test_system": "STOP deficient mice", "assay": "Maternal behaviour: nest building and pup retrieving, STOP KO mice", "procedure": "(§6) For maternal behaviour, STOP deficient or control wild type (WT) female mice, nulliparous, 8 weeks old, were treated either with a placebo (carrier alone), or with epothilone D.\n(§7) The maternal behaviour of treated and untreated mice was monitored by assaying the mouse ability to build a nest and to retrieve pups\n(§8) For assessment of nesting capacity, the tested mouse was placed in a 240×240×120 mm cage containing litter and provided with a Kleenex tissue folded in 4 (final dimensions, 100×100 mm). After 60 hours, the mouse ability to use the paper and to build a nest was scored as follows:\n(§9) Tissue use score: 0, the Kleenex tissue remained folded; 1, the tissue has been unfolded but not shredded; 2 the tissue was shredded.\n(§10) Nest building score: 0, no attempt to build a nest; 1, primitive flat nest of uncontrolled shape; 2, true nest, the paper is mixed with litter to form a circular nest, less than 80 mm in diameter.\n(§11) For assessment of retrieving: following the nest building test, mice were trained and assessed for pup retrieving as in Andrieux et al. (Genes Dev. 2002 Sep. 15; 16(18):2350-64. Retrieving was scored as the number of pups retrieved (0 to 3).\nFinally a global score for nesting and retrieving capacity (TNR) was determined for each mouse, by adding the tissue use, nest building, and pup retrieving scores (maximal score for TNR is 7).\nThe maternal behaviour of untreated and treated mice was monitored by assaying mouse ability to build a nest and to retrieve pups. Experiments were performed at 3 concentrations of epothilone D (4 mg/kg/week, 3 mg/kg/week and 0.3 mg/kg/week).\nAmong 69 STO KO mice, […] were treated with placebo injections, 17 were treated with 3 mg/kg/week of epothilone, and 18 were treated with 0.3 mg/kg/week of epothilone. Among 34 WT mice, 17 were treated with placebo injections, and 17 were treated with 3 mg/kg/week of epothilone.\nIn another series of experiments, among 19 STOP KO mice, 9 were treated with placebo injections, 10 with 4 mg/kg/week epothilone D and as control, among 20 WT mice, 10 were treated with placebo injections and 10 with 4 mg/kg/week epothilone D."}, "[4]": {"test_system": "WT mice", "assay": "Maternal behaviour: nest building and pup retrieving, WT mice", "conditions": "example II", "procedure": "as §6, §7, §8, §9, §10, §11\nFinally a global score for nesting and retrieving capacity (TNR) was determined for each mouse, by adding the tissue use, nest building, and pup retrieving scores (maximal score for TNR is 7). […]"}, "[5]": {"test_system": "STOP KO mice", "assay": "Pup survival in progeny of STOP KO mothers", "procedure": "The epothilone treatment has been then tested whether it could induce pup survival in STOP KO mothers. Nine STOP KO mice treated with Epothilone D at 0.3 mg/kg/week and eight untreated females were mated the pups survival were analysed after delivery."}, "[6]": {"test_system": "STOP KO mice", "assay": "Synaptic vesicle density in CA1 hippocampal synapses (electron micrographs), STOP KO mice", "procedure": "It reports the quantitative analysis of synaptic vesicle density in CA1 hippocampal synapses of mice treated or not with epothilone D 3 mg/kg/week or with neuroleptics (0.5 mg/kg/day haloperidol and 5 mg/kg/day chlorpromazine, in drinking water, from birth to adulthood). Synaptic vesicle density, calculated as the ratio of the number of vesicle/nerve terminal surface (after subtraction of the surface area occupied by mitochondria). Results (means+/−s.e.m.) are shown for pooled 75 measurements from five wild type mice and from five STOP KO mice either untreated or treated with Epothilone D. For neuroleptic control experiments, results (means+/−s.e.m.) are shown for pooled 75 measurements from three STOP KO mice either untreated or treated with neuroleptics.\nHippocampus was dissected out from transcardially fixed mice, sliced and embedded in Epon. To determine the surface density of synaptic vesicles, a total of cross sections of 75 synapses made of hippocampal CA1 region were photographed randomly, and the numbers of synaptic vesicles in each nerve pre-terminal were counted on the electron micrographs. Synaptic vesicles density of STOP KO mice following long term neuroleptic treatment (0.5 mg/kg/day haloperidol and 5 mg/kg/day chlorpromazine, in drinking water, from birth to adulthood) was also examined using the same protocol. […]"}, "[7]": {"conditions": "STOP deficient mice, 3 mg/kg/week i.p., FIG. 1-B"}, "[8]": {"conditions": "STOP deficient mice, 4 mg/kg/week, 8 weeks, FIG. 2"}, "[9]": {"conditions": "STOP KO mice, 0.3 mg/kg/week i.p., FIG. 3"}, "[10]": {"conditions": "STOP KO mice, 3 mg/kg/week i.p., FIG. 3"}, "[11]": {"conditions": "STOP deficient mice, 4 mg/kg/week, FIG. 4"}}, "note": "Where “and” joins values, the source holds several entries; their conditions need not be identical. Identical values can stand only once."}
{"molecule": "C/C1=C/CC(/C(C)=C/c2csc(C)n2)OC(=O)CC(O)C(C)(C)C(=O)C(C)C(O)C(C)CCC1", "note": "(stereo not shown) [epothilone D]", "values": [{"measurement": "total number of shifts between activities", "setting": "[1]; STOP KO mice, summary statement, dose not stated", "value": "decrease"}, {"measurement": "total time spent grooming", "setting": "[1]; STOP deficient mice, 3 mg/kg/week i.p. once a week, at least 8 weeks, vs placebo, FIG. 1-A", "value": "decrease"}, {"measurement": "number of remaining still while awake sequences", "setting": "[1]; [7]", "value": "reducing"}, {"measurement": "number of walking sequences", "setting": "[1]; [7]", "value": "reducing"}, {"measurement": "total time spent sleeping", "setting": "[1]; STOP deficient mice, 3 mg/kg/week i.p., vs placebo, FIG. 1-A", "value": "increase"}, {"measurement": "total number of shifts between activities", "setting": "[1]; STOP deficient mice, 3 mg/kg/week i.p., vs placebo, FIG. 1-B", "value": "decreased"}, {"measurement": "total number of shifts between activities", "setting": "[1]; STOP deficient mice, 4 mg/kg/week i.p. in two injections a week, 8 weeks, FIG. 2", "value": "remarkable decrease"}, {"measurement": "number of feeding sequences", "setting": "[1]; [8]", "value": "remained unaffected"}, {"measurement": "number of grooming sequences", "setting": "[1]; [8]", "value": "decrease"}, {"measurement": "number of sleeping sequences", "setting": "[1]; [8]", "value": "remained unaffected"}, {"measurement": "number of walking sequences", "setting": "[1]; [8]", "value": "decrease"}, {"measurement": "total time spent grooming", "setting": "[1]; [8]", "value": "highly significantly diminished"}, {"measurement": "time spent sleeping", "setting": "[1]; STOP deficient mice, 4 mg/kg/week, 8 weeks, trend (tended to increase), FIG. 2", "value": "increase"}, {"measurement": "time spent remaining still without sleeping", "setting": "[1]; STOP deficient mice, 4 mg/kg/week, 8 weeks, trend, FIG. 2", "value": "tended to diminish"}, {"measurement": "number of sequences of stillness", "setting": "[2]; 4 mg/kg/week, FIG. 2, said to be compatible with random fluctuations", "value": "significant increase"}, {"measurement": "effect on the recorded activities", "setting": "[2]; example I (3 and 4 mg/kg/week)", "value": "no significant effect"}, {"measurement": "TNR score (global score, maximal 7)", "setting": "[3]; [9]", "value": "highly significant increase"}, {"measurement": "nest building score (0-2)", "setting": "[3]; [9]", "value": "improved"}, {"measurement": "paper use score (tissue use score, 0-2)", "setting": "[3]; [9]", "value": "improved"}, {"measurement": "pup retrieving score (0-3)", "setting": "[3]; [9]", "value": "improved"}, {"measurement": "TNR score (global score, maximal 7)", "setting": "[3]; [10]", "value": "highly significant increase"}, {"measurement": "nest building score (0-2)", "setting": "[3]; [10]", "value": "improved"}, {"measurement": "paper use score (tissue use score, 0-2)", "setting": "[3]; [10]", "value": "improved"}, {"measurement": "pup retrieving score (0-3)", "setting": "[3]; [10]", "value": "improved"}, {"measurement": "TNR score (global score, maximal 7)", "setting": "[3]; STOP KO mice, 4 mg/kg/week, rose from 1.16 without treatment, highly significant increase, FIG. 4", "value": 4.4}, {"measurement": "nest building score (0-2)", "setting": "[3]; [11]", "value": "strongly improved"}, {"measurement": "paper use score (tissue use score, 0-2)", "setting": "[3]; [11]", "value": "strongly improved"}, {"measurement": "pup retrieving score", "setting": "[3]; [11]", "value": "tended to improve"}, {"measurement": "effect on nurturing-related behaviours", "setting": "[4]", "value": "no significant effect"}, {"measurement": "STOP KO females with pup survival", "setting": "[5]; 0.3 mg/kg/week, nine treated STOP KO females mated, no pup survival without treatment", "value": "three out of the nine"}, {"measurement": "ratio of surviving pups to newborns", "setting": "[5]; 0.3 mg/kg/week, per mouse, the three STOP KO females with surviving pups", "value": "5/6 (2×) and 6/6"}, {"measurement": "maternal behaviour, compatible with pup survival", "setting": "[5]; STOP deficient female mice, summary statement, dose not stated", "value": "re-established"}, {"measurement": "increase of synaptic vesicle density relative to absence of treatment", "setting": "[6]; CA1 hippocampal synapses, 4 mg/kg/week, p<0.001, FIG. 5", "value": 20, "unit": "%"}, {"measurement": "increase of synaptic vesicle density", "setting": "[6]; summary statement, dose not stated", "value": "about 20%"}]}
